Experimental data published in patent US20140271766A1 (priority 2013, published 2014).
Where “and” joins values, the source holds several entries; their conditions need not be identical. Identical values can stand only once. Like-named read-outs stand apart in the source and are kept apart here. Marks after values point to notes of the source that are not given here.

Experiments:
[1] = human, in vivo
[2] = buprenorphine, individual patient
[3] = human, in vivo; remark: listed apart in the source

CO[C@@]12CC[C@@]3(C[C@@H]1[C@](C)(O)C(C)(C)C)[C@H]1Cc4ccc(O)c5c4[C@@]3(CCN1CC1CC1)[C@H]2O5 [buprenorphine]
Cave from Day 21 to removal, higher in higher dose group as compared with lower dose group [1]: 93%
Cmax, average, higher in higher dose group as compared with lower dose group [1]: 62%
reduction in buprenorphine concentrations from Day 17 to removal [1]: ≤ 50%
shortest half-life during the plateau phase [1]: 25 weeks
time to reach plateau phase of buprenorphine concentrations [1]: ≤ 21 days
Model predicted concentration at removal ([2]; 2 implants): 263 pg/ml and 342 pg/ml (2×) and 252 pg/ml and 447 pg/ml and 338 pg/ml
Time from implant to reaching 2x last concentration ([2]; 2 implants): 180 h
α-Half Life ([2]; 2 implants): 115^b hours
β-Half Life ([2]; 2 implants): 3578^bc hours
γ-Half life ([2]; 2 implants): 120 weeks
Model predicted concentration at removal ([2]; 4 implants): 6.69 pg/mL and 5.33 pg/mL and 5.76 pg/mL and 5.01 pg/mL and 7.78 pg/mL
Time from implant to reaching 2x last concentration ([2]; 4 implants): 690 h and 710 h
β-Half Life ([2]; 4 implants): 12.0 h and 16.0 h and 24.0 h
Renal clearance [3]: 0.0552 mL/min
